Reference: patent US20240016875A1, “SHAN-ZHA FOR THE TREATMENT OF DEPRESSION AND ANXIETY DISORDERS” (THE OPEN UNIVERSITY, priority 2020, published 2024)
Entries after “also recorded” stand apart in the source; their conditions may differ.

Legend:
[1] = test system: stressed mice; assay: Elevated plus maze (EPM), UCMS-stressed mice, Examples 1-3; type: in vivo; details: UCMS-stressed male ICR mice; herbs and NHT 30 mg/kg, escitalopram 15 mg/kg i.p., 3 weeks; vs vehicle
Method: ICR outbred 28-30 days old male mice (Envigo, Israel) were maintained in the vivarium of the Open University lab in Hadassah Ein Karem medical cement, Jerusalem. Mice were group housed (5 mice per cage) and each cage contained mice from all treatment groups. Mice were given ad libitum access to food and water except during stressor application (with the exclusion of the light/dark cycle reversal). Mice kept on a reversed 12 h light/dark cycle (lights on 7:00 pm-7:00 am) while experimental procedures were performed during the dark phase under red light. All experiments were approved by the Open University of Israel committee for animal care and use. Methods were carried out in accordance with the NIH guidelines.
Crataegus pinnatifida, Triticum aestivum, Lilium brownii and Fructus zizyphi jujuba were purchased as freeze-dried granules (KPC Products, Inc., Irvine, CA, USA). Each herb was dissolved in saline with 1% dimethylsulfoxide (DMSO) to a final concentration of 0.47 mg/ml and injected i.p. individually (30 mg/kg) or with the other components to form the formula (NHT, 30 mg/kg). […]
The EPM task was performed as previously described [6]. Shortly, each mouse was placed in the center of the maze and video recorded for 5 min. Anxiety-like behavior was expressed as the time the mouse spent in the open, unprotected arms of the maze. […]

[2] = test system: BDNF; assay: Hippocampal BDNF levels (ELISA), Example 7; type: in vivo; details: stressed mice; 30 mg/kg (escitalopram 15 mg/kg) i.p., 3 weeks; vs vehicle
Method: Assessment of brain BDNF levels. Tissues are homogenized in cold extraction buffer (Tris-buffered saline, pH 8.0, with 1% NP-40, 10% glycerol, 5 mM sodium metavanadate, 10 mM PMSF, 100 mg/ml aprotinin and 10 mg/ml leupeptin). Homogenates are acidified with 0.1 M HCl (pH 3.0), incubated at room temperature (22-24° C.) for 15 min, and neutralized with 0.1 M NaOH (pH 7.6). Homogenates are then microfuged at 7,000 g for 10 min. BDNF levels in the supernatant are evaluated using sandwich ELISA.

[3] = test system: stressed mice; assay: EPM, UCMS-stressed mice, Example 7; type: in vivo
Method: Animals. ICR outbred mice (Envigo RMS (Harlen), Israel) are kept in the vivarium of the Open University lab in Hadassah medical center, Jerusalem. Mice are kept on a reversed 12 h light/dark cycle and given ad libitum access to food and water. All experiments are performed during the dark phase under red light (7:00-19:00). All experiments have been approved by the committee for animal care and use according to the NIH guidelines. Drugs. Drugs are dissolved in saline and 1% DMSO to the desired concentration and administered i.p. Herbal mixture and Shan-zha (30 mg/kg) will be prepared by dissolving each component (KPC Products, Inc., CA, USA) to a final concentration of 0.47 mg/ml. […] Unpredictable chronic mild stress (UCMS). Mice are exposed to UCMS for 4 weeks at the age of 4 weeks as previously described. Elevated plus maze (EPM). This task is based on the natural tendency of mice to avoid open and elevated places. EPM are performed as previously described. Anxiety-like behavior are expressed as the time the animal spent in the open, unprotected arms of the maze.

[4] = test system: dams; assay: EPM in dams after restrain stress during gestation; type: in vivo, mice; details: PND21, 15 mg/kg s.c. daily PND1-PND21
Method: The EPM task was performed as previously described. Shortly, each mouse was placed in the center of the maze and video recorded for 5 min. Anxiety-like behavior was expressed as the time the mouse spent in the open, unprotected arms of the maze.
Female (n=40) and male (n=5) ICR outbred mice (100 days old; Envigo RMS, Jerusalem, Israel) were housed at 22±1° C. under 12 h light/dark cycles in the vivarium of the Open University lab in Hadassah medical center, Jerusalem. Mice had ad libitum access to rodent chow and water. Mice were housed in standard cages with a bed of woodchips and a piece of cotton wool for enrichment. All experiments were performed during the dark phase of the cycle. Male mice were used to father pups and were housed apart (5 per cage) from females until mating. […] Once a vaginal plug was identified, the females were transferred to a separate cage until parturition. Overall, 455 pups were delivered of which 317 (male: n=165; female: n=152) were designated for this study. Unassessed pups were maintained with littermates to avoid additional stress and ensure similar conditions. […]
Following mating, dams were separated to individual cages and were observed periodically to ensure onset of pregnancy. […] Shortly after, anxiety-like behavior was assessed on the EPM and dams were assigned to treatment group (escitalopram/shan-zha/vehicle). […]

[5] = test system: stressed mice; assay: Open Field Test (OFT), UCMS-stressed mice, Example 7; type: in vivo; details: 30 mg/kg (escitalopram 15 mg/kg) i.p., 3 weeks, vs vehicle
Method: Animals. ICR outbred mice (Envigo RMS (Harlen), Israel) are kept in the vivarium of the Open University lab in Hadassah medical center, Jerusalem. Mice are kept on a reversed 12 h light/dark cycle and given ad libitum access to food and water. All experiments are performed during the dark phase under red light (7:00-19:00). All experiments have been approved by the committee for animal care and use according to the NIH guidelines. Drugs. Drugs are dissolved in saline and 1% DMSO to the desired concentration and administered i.p. Herbal mixture and Shan-zha (30 mg/kg) will be prepared by dissolving each component (KPC Products, Inc., CA, USA) to a final concentration of 0.47 mg/ml. […] Unpredictable chronic mild stress (UCMS). Mice are exposed to UCMS for 4 weeks at the age of 4 weeks as previously described. Open Field Test (OFT). This test reflects the conflict between the innate fear that mice have of the central area of the field versus their desire to explore new environments. When anxious, the natural tendency of mice is to prefer staying close to the walls. […] Anxiety-like behavior is expressed as the time the animal spent in the center area of the field (Walsh, R. N. and R. A. Cummins, Psychol Bull, 1976. 83(3): p. 482-504). Locomotor activity are expressed as the percentage of time that the mouse moved in the arena in a velocity above 0.1 pixel/sec.

[6] = test system: stressed mice; assay: Tail suspension test (TST), UCMS-stressed mice, Examples 1-3; type: in vivo; details: UCMS-stressed male ICR mice; herbs and NHT 30 mg/kg, escitalopram 15 mg/kg i.p., 3 weeks; vs vehicle

SMILES: CN(C)CCC[C@@]1(c2ccc(F)cc2)OCc2cc(C#N)ccc21 [escitalopram]
- time spent in the open arms of the EPM (anxiety-like behavior) [1]: spent more time in the open arms of the maze in comparison with vehicle-treated mice; also recorded: reduced anxiety-like behavior in the EPM compared to vehicle
- hippocampal BDNF levels [2]: Significant elevations in hippocampal BDNF levels
- anxiety-like behavior in the EPM ([3]; stressed mice, 30 mg/kg (escitalopram 15 mg/kg) i.p., 3 weeks, vs vehicle): exhibited reduced anxiety-like behavior in the EPM compared to vehicle-treated stressed mice
- time (seconds) spent in open arms in the EPM, FIG. 22 experiment ([3]; vs saline, fractions SZ 50% and SZ 20% at 3 mg, listed as Escitalopram): Mice treated with saline spent significantly less time in open arms in comparison to other treatment groups
- anxiety-like behavior in the EPM, treated stressed dams vs saline-treated stressed dams ([4]; restrain stress during gestation, 15 mg/kg): saline-treated stressed dams demonstrated elevated anxiety-like behavior compared to both shan-zha- and escitalopram-treated stressed dams; also recorded: the stress-vehicle group demonstrated increased anxiety-like behavior compared to the naïve-vehicle, stress-escitalopram and stress-shan-zha groups
- effect of stress manipulation on time spent in open arms within treatment group, dams ([4]; stressed vs naive dams): Stress manipulation did not affect time spent in open arms
- anxiety-like behavior in the OFT [5]: exhibited reduced anxiety-like behavior in the OFT compared to vehicle-treated stressed mice
- time spent immobile in the TST (depressive-like behavior) [6]: spent less time immobile in comparison with vehicle-treated mice; also recorded: reduced depressive-like behavior in the Tail suspension test (TST) compared to vehicle
